PMC5190074, “BET inhibition as a new strategy for the treatment of gastric cancer” (Oncotarget, 2016)

Experiments:
Test in all cases: biochemical
Design in all cases: thermal shift assay (real-time PCR machine), melting temperature shift of recombinant bromodomains at 2 uM protein
[1] = target: T1, ATAD2B (Homo sapiens, UniProt Q9ULI0)
T1 construct: bromodomain
Procedure: (§1) The recombinant bromodomains at 2 μM were mixed with 10 μM inhibitors. The assays and data evaluation for melting temperatures were performed using a Real-Time PCR Mx3005p machine (Stratagene) and the protocols previously described. Experiments profiling the final compound (PNZ5) were performed in quadruplicates. […] Since its discovery in our own labs, similar inhibitors have also been disclosed by researchers at Boehringer Ingelheim [reference: patent, WO 2014/154760 [31]]. The inhibitor contains two possible acetyl-lysine mimetic moieties. In order to obtain molecular insights on the interaction of the developed inhibitor, the crystal structure of the first bromodomain of BRD4 in complex with PNZ5 was solved at 1.85 Å (Figure 2C and Supplementary Table 4, 5FBX.pdb). The inhibitor, coordinating residues and water molecules were well defined by the electron density. The dimethylisoxazole moiety mimicked the acetyl lysine side chain and formed two canonical hydrogen-bond interactions with Asn140 and water mediated hydrogen-bond with Tyr 97 (Figure 2C). The common network of waters within the binding site was also conserved in the BRD4(1)-PNZ5 complex. The compound was further stabilized by lipophilic interactions with residues forming the binding site Leu92, Leu94, Ile146. The [compound left out] substituent was well accommodated next to the WPF shelf, as well as the N1-methyl substituent that formed hydrophobic interactions with Trp81. The carbonyl on the isoindolinone established a water-mediated hydrogen bond with Lys91.

[2] = target: T2, BAZ2A (Homo sapiens, UniProt Q9UIF9)
T2 construct: bromodomain
Procedure: as §1

[3] = target: T3, BAZ2B (Homo sapiens, UniProt Q9UIF8)
T3 construct: bromodomain
Procedure: as §1

[4] = target: T4, BRD1 (Homo sapiens, UniProt O95696)
T4 construct: bromodomain
Procedure: as §1

[5] = target: T5, BRD2(2) (Homo sapiens, UniProt P25440)
T5 construct: bromodomain 2
Procedure: as §1

[6] = target: T6, BRD4(1), first bromodomain of BRD4 (Homo sapiens, UniProt O60885)
T6 construct: first bromodomain; BRD4_HUMAN O60884-1 fragment 44-168 (crystallography)
Procedure: as §1

[7] = target: T7, BRDT(2) (Homo sapiens, UniProt Q58F21)
T7 construct: bromodomain 2
Procedure: as §1

[8] = target: T8, BRPF1A (Homo sapiens, UniProt P55201)
T8 construct: gene BRPF1; isoform A bromodomain
Procedure: as §1

[9] = target: T9, BRPF3 (Homo sapiens, UniProt Q9ULD4)
T9 construct: bromodomain
Procedure: as §1

[10] = target: T10, BRWD3(2) (Homo sapiens, UniProt Q6RI45)
T10 construct: bromodomain 2
Procedure: as §1

[11] = target: T11, CREBBP (Homo sapiens, UniProt Q92793)
T11 construct: bromodomain
Procedure: as §1

[12] = target: T12, EP300 (Homo sapiens, UniProt Q09472)
T12 construct: bromodomain
Procedure: as §1

[13] = target: T13, GCN5L2 (Homo sapiens, UniProt Q92830)
T13 construct: gene KAT2A; bromodomain
Procedure: as §1

[14] = target: T14, MLL (Homo sapiens, UniProt Q03164)
T14 construct: gene KMT2A; bromodomain
Procedure: as §1

[15] = target: T15, PB1(6) (Homo sapiens, UniProt Q86U86)
T15 construct: gene PBRM1; bromodomain 6
Procedure: as §1

[16] = target: T16, PHIP(2) (Homo sapiens, UniProt Q8WWQ0)
T16 construct: bromodomain 2
Procedure: as §1

[17] = target: T17, SMARCA2 (Homo sapiens, UniProt P51531)
T17 construct: bromodomain
Procedure: as §1

[18] = target: T18, SMARCA4 (Homo sapiens, UniProt P51532)
T18 construct: bromodomain
Procedure: as §1

[19] = target: T19, SP140 (Homo sapiens, UniProt Q13342)
T19 construct: bromodomain
Procedure: as §1

[20] = target: T20, TRIM28 (Homo sapiens, UniProt Q13263)
T20 construct: bromodomain
Procedure: as §1

T5 sequence (P25440 whole entry): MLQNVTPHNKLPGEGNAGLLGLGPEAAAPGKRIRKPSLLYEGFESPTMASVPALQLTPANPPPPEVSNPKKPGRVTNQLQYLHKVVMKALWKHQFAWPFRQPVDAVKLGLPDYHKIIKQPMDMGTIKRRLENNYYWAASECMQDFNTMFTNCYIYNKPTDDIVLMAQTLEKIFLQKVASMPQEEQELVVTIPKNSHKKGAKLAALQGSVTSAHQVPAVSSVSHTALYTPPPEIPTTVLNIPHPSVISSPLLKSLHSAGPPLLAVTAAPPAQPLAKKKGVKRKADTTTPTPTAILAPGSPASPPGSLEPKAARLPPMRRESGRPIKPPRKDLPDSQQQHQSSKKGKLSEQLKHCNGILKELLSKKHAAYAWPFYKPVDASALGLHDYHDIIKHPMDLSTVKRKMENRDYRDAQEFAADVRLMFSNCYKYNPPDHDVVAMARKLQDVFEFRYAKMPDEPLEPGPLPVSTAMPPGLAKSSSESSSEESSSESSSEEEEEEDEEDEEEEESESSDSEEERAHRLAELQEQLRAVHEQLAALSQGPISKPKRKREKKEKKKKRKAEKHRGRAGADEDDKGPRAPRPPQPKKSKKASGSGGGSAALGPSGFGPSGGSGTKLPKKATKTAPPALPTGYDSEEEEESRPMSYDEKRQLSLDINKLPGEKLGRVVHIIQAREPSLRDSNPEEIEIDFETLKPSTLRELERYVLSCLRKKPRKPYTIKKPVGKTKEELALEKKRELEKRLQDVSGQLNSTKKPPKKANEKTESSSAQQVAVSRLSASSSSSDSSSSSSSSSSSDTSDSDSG
T13 sequence (Q92830 whole entry): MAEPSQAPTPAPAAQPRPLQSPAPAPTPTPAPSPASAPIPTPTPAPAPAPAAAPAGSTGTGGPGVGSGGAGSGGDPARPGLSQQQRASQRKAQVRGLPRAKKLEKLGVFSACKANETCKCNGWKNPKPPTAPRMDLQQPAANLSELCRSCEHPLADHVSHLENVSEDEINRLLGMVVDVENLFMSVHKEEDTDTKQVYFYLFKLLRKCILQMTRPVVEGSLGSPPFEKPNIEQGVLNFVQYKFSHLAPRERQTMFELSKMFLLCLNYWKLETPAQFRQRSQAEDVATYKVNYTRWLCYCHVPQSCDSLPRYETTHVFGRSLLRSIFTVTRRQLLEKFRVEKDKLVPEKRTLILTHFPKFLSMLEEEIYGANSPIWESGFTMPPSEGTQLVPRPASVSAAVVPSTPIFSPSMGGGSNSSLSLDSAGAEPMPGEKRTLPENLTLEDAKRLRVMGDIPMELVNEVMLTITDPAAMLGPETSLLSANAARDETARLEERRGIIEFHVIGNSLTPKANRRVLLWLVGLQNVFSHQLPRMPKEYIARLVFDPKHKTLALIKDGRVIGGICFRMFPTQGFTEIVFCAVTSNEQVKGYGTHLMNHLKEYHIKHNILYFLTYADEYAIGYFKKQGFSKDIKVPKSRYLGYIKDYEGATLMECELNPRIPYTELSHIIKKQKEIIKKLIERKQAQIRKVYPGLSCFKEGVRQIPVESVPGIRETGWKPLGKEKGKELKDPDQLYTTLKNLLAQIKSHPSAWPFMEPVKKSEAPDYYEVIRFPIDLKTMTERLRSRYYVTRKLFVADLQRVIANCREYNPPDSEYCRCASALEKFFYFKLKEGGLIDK
T11 sequence (Q92793 whole entry): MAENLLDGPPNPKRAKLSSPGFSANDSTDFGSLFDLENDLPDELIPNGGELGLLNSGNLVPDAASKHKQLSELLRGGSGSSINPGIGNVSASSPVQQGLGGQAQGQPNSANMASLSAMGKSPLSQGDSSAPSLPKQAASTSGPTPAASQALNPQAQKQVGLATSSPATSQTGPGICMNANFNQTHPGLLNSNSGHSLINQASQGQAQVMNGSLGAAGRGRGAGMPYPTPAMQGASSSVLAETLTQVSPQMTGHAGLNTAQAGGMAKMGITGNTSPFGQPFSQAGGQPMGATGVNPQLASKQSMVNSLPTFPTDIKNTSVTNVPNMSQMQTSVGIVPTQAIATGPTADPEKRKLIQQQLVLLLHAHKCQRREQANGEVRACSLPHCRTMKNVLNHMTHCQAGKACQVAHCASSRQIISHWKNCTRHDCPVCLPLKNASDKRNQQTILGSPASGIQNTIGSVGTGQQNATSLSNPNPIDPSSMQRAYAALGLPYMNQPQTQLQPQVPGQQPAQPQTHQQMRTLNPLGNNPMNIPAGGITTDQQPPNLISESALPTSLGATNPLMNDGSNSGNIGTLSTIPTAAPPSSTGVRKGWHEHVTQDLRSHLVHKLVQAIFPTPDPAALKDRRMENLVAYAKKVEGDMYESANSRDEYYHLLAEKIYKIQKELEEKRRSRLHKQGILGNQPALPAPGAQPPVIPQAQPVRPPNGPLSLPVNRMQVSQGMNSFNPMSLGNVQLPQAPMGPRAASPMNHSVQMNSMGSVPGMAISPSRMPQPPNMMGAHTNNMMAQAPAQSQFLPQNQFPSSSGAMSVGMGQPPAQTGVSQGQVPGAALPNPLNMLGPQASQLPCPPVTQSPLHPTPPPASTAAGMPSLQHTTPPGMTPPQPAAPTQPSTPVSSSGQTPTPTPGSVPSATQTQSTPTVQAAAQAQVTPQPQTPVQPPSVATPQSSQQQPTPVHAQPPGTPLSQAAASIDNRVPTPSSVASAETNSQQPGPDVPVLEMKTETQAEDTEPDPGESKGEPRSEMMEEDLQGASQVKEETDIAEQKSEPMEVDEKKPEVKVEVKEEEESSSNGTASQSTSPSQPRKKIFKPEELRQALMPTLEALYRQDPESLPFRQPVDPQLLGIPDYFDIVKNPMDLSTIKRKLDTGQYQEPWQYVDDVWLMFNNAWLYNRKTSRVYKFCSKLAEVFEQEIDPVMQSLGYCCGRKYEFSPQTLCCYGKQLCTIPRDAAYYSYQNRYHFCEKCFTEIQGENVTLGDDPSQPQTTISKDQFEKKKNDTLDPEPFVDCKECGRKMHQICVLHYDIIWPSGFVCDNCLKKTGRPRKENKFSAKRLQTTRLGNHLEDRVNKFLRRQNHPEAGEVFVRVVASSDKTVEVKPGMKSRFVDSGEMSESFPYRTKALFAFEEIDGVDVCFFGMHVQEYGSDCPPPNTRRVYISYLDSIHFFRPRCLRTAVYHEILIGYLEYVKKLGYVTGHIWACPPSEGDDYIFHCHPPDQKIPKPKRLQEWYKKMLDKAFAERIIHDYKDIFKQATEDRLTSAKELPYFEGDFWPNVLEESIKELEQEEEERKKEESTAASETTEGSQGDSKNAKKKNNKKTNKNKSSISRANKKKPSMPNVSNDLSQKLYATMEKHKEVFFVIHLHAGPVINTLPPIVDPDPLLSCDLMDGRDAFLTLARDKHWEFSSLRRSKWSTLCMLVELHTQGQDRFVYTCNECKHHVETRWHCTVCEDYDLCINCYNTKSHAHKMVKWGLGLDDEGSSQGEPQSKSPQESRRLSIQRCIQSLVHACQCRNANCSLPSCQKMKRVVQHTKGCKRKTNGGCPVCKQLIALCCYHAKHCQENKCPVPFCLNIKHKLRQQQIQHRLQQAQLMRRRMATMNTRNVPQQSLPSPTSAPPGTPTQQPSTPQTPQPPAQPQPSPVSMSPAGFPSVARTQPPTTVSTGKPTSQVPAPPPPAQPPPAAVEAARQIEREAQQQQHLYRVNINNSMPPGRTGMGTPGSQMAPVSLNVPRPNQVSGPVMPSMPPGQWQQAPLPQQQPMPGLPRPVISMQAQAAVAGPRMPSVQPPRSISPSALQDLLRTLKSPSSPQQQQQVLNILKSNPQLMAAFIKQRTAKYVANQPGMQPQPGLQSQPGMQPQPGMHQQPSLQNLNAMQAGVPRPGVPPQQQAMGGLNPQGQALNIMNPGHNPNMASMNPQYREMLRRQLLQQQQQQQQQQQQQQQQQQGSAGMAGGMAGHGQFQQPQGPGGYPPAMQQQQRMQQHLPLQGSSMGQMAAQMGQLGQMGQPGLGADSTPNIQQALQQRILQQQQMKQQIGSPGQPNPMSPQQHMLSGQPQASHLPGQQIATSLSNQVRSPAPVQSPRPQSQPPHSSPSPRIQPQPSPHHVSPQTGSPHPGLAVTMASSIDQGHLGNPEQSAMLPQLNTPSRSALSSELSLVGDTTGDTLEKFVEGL
T20 sequence (Q13263 whole entry): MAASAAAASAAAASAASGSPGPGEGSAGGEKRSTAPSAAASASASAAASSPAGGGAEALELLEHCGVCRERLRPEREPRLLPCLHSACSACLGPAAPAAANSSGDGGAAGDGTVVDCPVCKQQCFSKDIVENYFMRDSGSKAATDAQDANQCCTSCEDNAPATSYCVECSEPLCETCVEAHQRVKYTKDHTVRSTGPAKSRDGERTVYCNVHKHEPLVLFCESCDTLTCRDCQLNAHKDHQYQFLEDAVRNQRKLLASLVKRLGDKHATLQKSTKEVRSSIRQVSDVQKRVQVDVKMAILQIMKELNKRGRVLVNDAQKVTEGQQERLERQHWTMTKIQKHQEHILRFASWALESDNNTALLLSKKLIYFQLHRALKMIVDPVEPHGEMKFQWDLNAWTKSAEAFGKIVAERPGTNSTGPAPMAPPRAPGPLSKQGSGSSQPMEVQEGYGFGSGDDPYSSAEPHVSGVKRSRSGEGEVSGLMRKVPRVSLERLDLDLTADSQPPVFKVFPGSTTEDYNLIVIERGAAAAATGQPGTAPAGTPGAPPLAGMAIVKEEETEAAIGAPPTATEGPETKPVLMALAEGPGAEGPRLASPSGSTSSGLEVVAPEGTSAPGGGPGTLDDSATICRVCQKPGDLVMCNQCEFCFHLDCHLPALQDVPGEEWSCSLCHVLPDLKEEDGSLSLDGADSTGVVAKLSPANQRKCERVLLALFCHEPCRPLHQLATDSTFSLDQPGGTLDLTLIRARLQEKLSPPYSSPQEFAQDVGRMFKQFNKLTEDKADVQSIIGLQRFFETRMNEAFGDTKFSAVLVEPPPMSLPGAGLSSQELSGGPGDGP

ΔTm at 10 µM [1]: 0.3 °C
ΔTm at 10 µM [2]: 0.32 °C
ΔTm at 10 µM [3]: 0.38 °C
ΔTm at 10 µM [4]: 1.03 °C
ΔTm at 10 µM [5]: 8.13 °C
ΔTm at 10 µM [6]: 10.1 °C
ΔTm at 10 µM [7]: 8.81 °C
ΔTm at 10 µM [8]: 0.81 °C
ΔTm at 10 µM [9]: 0.95 °C
ΔTm at 10 µM [10]: 0.74 °C
ΔTm at 10 µM [11]: 2.37 °C
ΔTm at 10 µM [12]: 2.49 °C
ΔTm at 10 µM [13]: 0.25 °C
ΔTm at 10 µM [14]: 0.49 °C
ΔTm at 10 µM [15]: 0.26 °C
ΔTm at 10 µM [16]: 0.22 °C
ΔTm at 10 µM [17]: -0.18 °C
ΔTm at 10 µM [18]: 0.04 °C
ΔTm at 10 µM [19]: 0.87 °C
ΔTm at 10 µM [20]: -0.11 °C
SMILES: Cc1noc(C)c1-c1ccc2c(c1)[C@H](c1ccccc1)N(C)C2=O [PNZ5]
